{"source": "patent EP0637237B1", "about": "“CALCIUM RECEPTOR-ACTIVE MOLECULES” (BRIGHAM AND WOMEN'S HOSPITAL, INC., priority 1993, dated 1994)", "key": {"C-cell Ca^2+ receptor": {"molecular_target": "T1, C-cell Ca^2+ receptor (Rattus norvegicus, UniProt P48442)", "T1 sequence (P48442 20-1079)": "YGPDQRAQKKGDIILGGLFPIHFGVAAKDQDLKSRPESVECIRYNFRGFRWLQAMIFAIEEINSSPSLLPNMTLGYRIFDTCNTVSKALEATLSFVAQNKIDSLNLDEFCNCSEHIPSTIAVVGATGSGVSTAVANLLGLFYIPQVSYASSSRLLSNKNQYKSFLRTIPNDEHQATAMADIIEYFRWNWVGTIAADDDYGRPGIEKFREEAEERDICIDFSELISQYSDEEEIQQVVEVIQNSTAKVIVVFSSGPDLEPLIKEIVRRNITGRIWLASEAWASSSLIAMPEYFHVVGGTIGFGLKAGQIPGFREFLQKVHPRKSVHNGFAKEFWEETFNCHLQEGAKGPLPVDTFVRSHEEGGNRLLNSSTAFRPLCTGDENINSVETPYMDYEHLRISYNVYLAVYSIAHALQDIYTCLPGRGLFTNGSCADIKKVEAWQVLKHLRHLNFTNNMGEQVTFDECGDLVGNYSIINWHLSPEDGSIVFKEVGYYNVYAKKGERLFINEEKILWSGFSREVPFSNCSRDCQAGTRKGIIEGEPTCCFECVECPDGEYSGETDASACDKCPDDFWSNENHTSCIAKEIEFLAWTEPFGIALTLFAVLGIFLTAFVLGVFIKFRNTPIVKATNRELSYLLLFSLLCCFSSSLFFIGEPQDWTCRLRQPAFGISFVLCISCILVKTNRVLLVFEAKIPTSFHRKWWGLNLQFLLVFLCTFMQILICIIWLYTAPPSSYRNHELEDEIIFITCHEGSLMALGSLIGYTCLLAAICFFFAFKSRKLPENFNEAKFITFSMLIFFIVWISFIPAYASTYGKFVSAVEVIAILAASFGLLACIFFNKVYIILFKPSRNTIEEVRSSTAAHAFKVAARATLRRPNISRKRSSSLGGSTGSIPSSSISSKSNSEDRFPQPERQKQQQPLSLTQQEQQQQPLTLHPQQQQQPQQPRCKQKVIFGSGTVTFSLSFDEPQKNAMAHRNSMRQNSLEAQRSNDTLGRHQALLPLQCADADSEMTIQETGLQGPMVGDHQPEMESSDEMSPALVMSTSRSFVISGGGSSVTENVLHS", "type": "cell-based", "details": "Table 6; rMTC 6-23 cells, fura-2; inactive = no increase in cytosolic Ca2+ at 1-5 mM"}, "[1]": {"experiment": "Serum or whole blood ionized Ca2+ and PTH in rats in vivo", "set-up": "species or system Sprague-Dawley rats", "source_text": "Male Sprague-Dawley rates (200 g) were maintained on a low calcium diet for one week prior to receiving test substance or vehicle as control. Blood was collected from the tail vein three hours after the intra-peritoneal administration of NPS 467. […]"}, "[2]": {"experiment": "Serum ionized Ca2+ in parathyroidectomized rats", "type": "in vivo", "details": "single dose 10 mg/kg i.p., over a period of 6 hours", "source_text": "To determine the primary target tissue upon which NPS 467 acts to cause a hypocalcemic response, the para thyroid glands in rats were surgically removed."}, "[3]": {"experiment": "Serum ionized Ca2+ in the 5/6 nephrectomized rat (secondary hyperparathyroidism model)", "type": "in vivo, Sprague-Dawley rats", "details": "10 mg/kg i.p.", "source_text": "An accepted and widely used animal model of secondary hyperparathyroidism arising from chronic renal failure is the 5/6 nephrectomized rat. […] Male Sprague-Dawley rats (250 g) received a 5/6 nephrectomy and were allowed to recover for 2 weeks. At this time they were normocalcemic (due to elevated levels of serum PTH)."}, "[4]": {"molecular_target": "T2, parathyroid cell Ca^2+ receptor (Bos taurus, UniProt P35384)", "T2 sequence (P35384 20-1085)": "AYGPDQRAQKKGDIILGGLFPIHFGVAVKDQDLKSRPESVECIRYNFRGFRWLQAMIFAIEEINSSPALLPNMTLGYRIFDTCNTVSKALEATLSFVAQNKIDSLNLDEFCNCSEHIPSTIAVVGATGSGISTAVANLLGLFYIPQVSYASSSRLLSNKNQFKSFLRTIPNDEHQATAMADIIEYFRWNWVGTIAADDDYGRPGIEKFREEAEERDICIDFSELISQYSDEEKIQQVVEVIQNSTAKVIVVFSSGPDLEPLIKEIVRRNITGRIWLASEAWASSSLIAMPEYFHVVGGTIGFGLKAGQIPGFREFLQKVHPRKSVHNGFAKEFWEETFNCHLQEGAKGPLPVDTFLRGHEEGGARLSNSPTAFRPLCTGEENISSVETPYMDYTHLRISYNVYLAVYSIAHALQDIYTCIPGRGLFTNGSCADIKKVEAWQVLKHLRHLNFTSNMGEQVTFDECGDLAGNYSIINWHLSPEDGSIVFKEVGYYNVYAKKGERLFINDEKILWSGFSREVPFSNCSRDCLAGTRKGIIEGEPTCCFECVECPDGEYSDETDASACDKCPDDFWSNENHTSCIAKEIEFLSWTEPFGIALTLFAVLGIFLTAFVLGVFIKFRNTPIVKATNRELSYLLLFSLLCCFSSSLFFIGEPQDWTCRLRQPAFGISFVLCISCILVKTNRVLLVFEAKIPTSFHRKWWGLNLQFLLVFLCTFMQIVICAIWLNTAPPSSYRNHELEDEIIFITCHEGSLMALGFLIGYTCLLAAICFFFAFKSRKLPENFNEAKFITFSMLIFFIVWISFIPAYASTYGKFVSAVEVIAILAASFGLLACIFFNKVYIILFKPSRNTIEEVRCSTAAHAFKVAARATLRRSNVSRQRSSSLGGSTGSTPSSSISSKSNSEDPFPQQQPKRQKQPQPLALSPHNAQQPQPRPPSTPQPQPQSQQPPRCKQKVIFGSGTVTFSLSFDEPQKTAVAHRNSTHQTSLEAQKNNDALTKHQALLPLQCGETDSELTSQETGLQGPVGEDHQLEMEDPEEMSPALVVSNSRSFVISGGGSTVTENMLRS", "type": "cell-based, bovine"}, "[5]": {"details": "normal calcium-replete diet, 10 mg/kg i.p."}}, "note": "Where two headings read alike, the source gives them in different places."}
{"smiles": "NCCCNCCCCNCCCNCCCN(O)CCCNC(=O)Cc1c[nH]c2cccc(O)c12", "note": "[NPS 015]", "values": [{"measurement": "EC50(µM) C-CELL", "setting": "C-cell Ca^2+ receptor", "value": "inactive"}]}
{"smiles": "COc1cccc([C@@H](C)NCCCc2ccccc2)c1", "note": "[NPS R-467]", "values": [{"measurement": "potency in lowering serum Ca2+ in vivo, enantiomers compared", "setting": "[1]; each compound at 5 mg/kg body weight, Fig. 42", "value": "more potent than the S-isomer in lowering serum Ca^2+ in vivo"}, {"measurement": "time serum ionized Ca2+ remained depressed", "setting": "[1]; [5]", "value": "up to 6 hours"}, {"measurement": "time to maximal fall in serum ionized Ca2+", "setting": "[1]; [5]", "value": "≤ 1", "unit": "h"}, {"measurement": "decrease in serum ionized Ca2+ from the control level", "setting": "[1]; normal calcium-replete diet, single dose 10 mg/kg i.p., at 1 hr", "value": 22, "unit": "%"}, {"measurement": "change in serum ionized Ca2+ levels", "setting": "[2]", "value": "did not cause any change in serum ionized Ca^2+ levels"}, {"measurement": "time of the fall in serum ionized Ca2+", "setting": "[3]", "value": "≤ 2", "unit": "h"}, {"measurement": "serum ionized Ca2+ levels", "setting": "[3]; 5/6 nephrectomy, 2 weeks recovery", "value": "83 % of controls"}, {"measurement": "[Ca2+]i response in Ca2+-free buffer", "setting": "[4]; 30 àM NPS R-467 alone, Ca2+-free buffer", "value": "no increase in [Ca^2+]i"}, {"measurement": "[Ca2+]i response in Ca2+-free buffer after neomycin", "setting": "[4]; NPS R-467 30 µM added after 10 µM neomycin", "value": "elicited a transient increase in [Ca^2+]i"}, {"measurement": "[Ca2+]i response in Ca2+-free buffer after neomycin", "setting": "[4]; NPS R-467 30 µM added after 100 µM neomycin", "value": "did not cause an increase in [Ca^2+]i"}]}
